Earlier results as cited in patent publication US20250356959A1, “Toxicity Prediction Of Compounds In Cellular Structures” (Sanofi, priority 2022, published 2025).

Tested on: liver cells
Conditions: positive control, 60 micro moles

Compound: CN(C)CCCN1c2ccccc2Sc2ccc(Cl)cc21 [CPZ, Chlorpromazine]
- known toxic effect of reference compound: toxic to liver cells and triggers cholestasis
